Patent US20250002569A1, “METHOD OF TREATING OSTEOARTHRITIS” (AlaMab Therapeutics, Inc., priority 2023, published 2025)
Where a name gives a salt, the structure may show the parent alone.

Experiments:
Format in all cases: in vivo, Sprague Dawley (SD) rats
[1] = test system: rats with osteoarthritis induced by pMMx+ACLT; assay: Gait score (Coderre scoring method) in pMMx+ACLT osteoarthritis rat model; settings: for Gait Score: Duloxetine 5 mg/kg i.g. daily
Experimental: (§1) After acclimation of the animals, the animals were evaluated for normal pain threshold (on Day 1 of study) using the Von Frey, or Up-Down, method, and for biped balance degree of the knee joint on the surgical side (right hind limb) using a biped balance tester. The rats were then anesthetized with isoflurane, and the knee joints were depilated and disinfected. Osteoarthritis was induced in the animals by partial medial meniscectomy in combination with anterior cruciate ligament transection (pMMx+ACLT). Briefly, the skin and joint cavity close to the inner side of the right knee were cut, the knee joint was placed in the maximum flexion state, with the joint cavity exposed and the medial meniscus separated. The medial ⅓ meniscus and the anterior cruciate ligament were then cut-off. For the control animal group (no osteoarthritis induction), only the skin was cut to open the joint cavity without removing the ligament or meniscus. The date of the osteoarthritis model establishment was Day 8 of the study.
(§2) One week after model establishment (Day 15 of study), before administration of treatment, the basic pain threshold of plantar pain was evaluated on the operation side for each of the animals, and the osteoarthritis model rats were evenly divided according to the basic Von Frey reaction value (2-5), with 8 animals used for each of the osteoarthritis model group (vehicle-treatment), the positive control drug (duloxetine) 5 mg/kg group, and the ALMB-0166 15 mg/kg, 25 mg/kg, and 50 mg/kg dose groups. After grouping, drug treatment was started on Day 15 of study. For each of the ALMB-0166-treated test groups, the treatment was administered intravenously, once a week, with four total doses (on Day 15, 22, 29, and 36 of the study, corresponding to day 1, 8, 15 and 22 of treatment). For the positive control group, duloxetine was administered orally every day until the end of the experimental cycle.
(§3) Weight measurements were taken for animals in each test group on Days 15, 22, 29 and 36 of the study. On Days 16, 23, 30 and 37, the gait of each animal, the change of plantar pain threshold induced by knee joint lesions on the operative side, and the weight bearing of both lower limbs were measured for each animal was scored on according to the Coderre scoring method, the Up-Down method, and bipedal balance pain testing, respectively.
Coderre gait method was used to measure the gait of each animal. The gait was measured according to the following scoring: standard (Grade 0: normal walking, 0 point); Level 1 (sight claudication, slight bending below knee joint, 2 points); Level 2 (claudication, the affected limb can touch the ground, 4 points); Level 3 (severe claudication, the affected limb leaves the ground and walk on three feet, 6 points).
(§4) The gait scoring, plantar pain threshold, and weight bearing differential were expressed as the mean and […] (Mean±SD). The data between model group and administration group at multiple time points were analyzed by repeated measures analysis of variance method with SPSS Statistics 21 software, and Tamhane's method for subsequent analysis. P<0.05 was considered to have a significant difference, and p<0.01 was considered to have a very significant difference. The final data were plotted with GraphPad Prism 6 software.

[2] = test system: rats with osteoarthritis induced by pMMx+ACLT; assay: Mechanical pain threshold of plantar pain (Von Frey Up-Down method, 50% MWT) in pMMx+ACLT osteoarthritis rat model; settings: for Percent Increase in 50% MWT (g) (as compared to Day 15 of study) / Pain threshold of plantar pain, 50% MWT: Duloxetine 5 mg/kg i.g. daily
Experimental: as §1, §2, §3
The Up-Down method was used to measure the plantar pain threshold. Following the Up-Down methos, each rat was placed in a transparent enclosure with a sieve-shaped metal plate at the bottom, and the animal was allowed to adapt to about 15 minutes until the autonomous exploration and grooming activities stop. Von Frey probes were then used to vertically stimulate the middle of the hind plantar of each rat to make the plantar slightly s-shaped for 5 second, and the paw withdrawal response was observed. A positive response was noted if the paw was sharply withdrawn or there was flinching upon removal. The interval between each measurement was about 10 sec. If no response was observed after probe stimulation, it was regarded as a negative reaction.
For scoring the mechanical pain, the rats were stimulated with a series of Von Frey probes of 0.4, 0.6, 1, 1.4, 2, 4, 6, 8, 10, and 15 g). Testing was start with a 2 g probe, and if a positive reaction occurred, it was recorded as an “X,” and testing was continued with a 1.4 g probe. […] Testing was continued accordingly, using the probes successively without circumvention. […] If a positive reaction was induced even by the 0.4 g probe, the 50% MWT was recorded as 0.4 g. […]

[3] = Weight of rats with osteoarthritis induced by pMMx+ACLT; settings: Duloxetine 5 mg/kg i.g. daily
Experimental: Male Sprague Dawley (SD) rats (Specific Pathogen Free grade; Shanghai Slac Laboratory Animal Co. Ltd) were obtained in the study. Each rat was weight at the start of treatment, with the average weight ranging from 200-220 grams. Upon arrival at the test facility, the animals were housed at five rats per cage and acclimated for five to seven days prior to initiation of treatment.
as §1, §2, §3

[4] = test system: rats with osteoarthritis induced by pMMx+ACLT; assay: Weight bearing difference of hind legs (biped balance measurement) in pMMx+ACLT osteoarthritis rat model; settings: for Weight bearing difference of hind legs: Duloxetine 5 mg/kg i.g. daily
Experimental: as §1, §2, §3
A bipedal balance pain tester was used to evaluate the weight bearing of both lower limbs for each animal. Each animal was placed in the plexiglass cover of the biped balance pain instrument. After the animal completed their exploratory behavior, the forelimbs of the rats laid on the incline of the device, and the hind limbs stood on the left and right balance plates respectively. […] The measurements were repeated three times for each animal, with an interval of 10 seconds between each replicate measurement.
as §4

[5] = Day 1 (before model establishment)
[6] = duloxetine 5 mg/kg, multivariate test, p<0.05

## CNCC[C@H](Oc1cccc2ccccc12)c1cccs1 [Duloxetine, Duloxetine hydrochloride]
[1]; Day 16 of study
  Gait Score: 3.5 ± 0.9
[1]; Day 23 of study
  Gait Score: 3.0 ± 1.1
[1]; Day 30 of study
  Gait Score: 1.3 ± 1.0
[1]; Day 37 of study
  Gait Score: 0.0 ± 0.0
[1]; duloxetine 5 mg/kg, multivariate test, p>0.05
  Gait score compared to the vehicle-treated group: no significant different
[2]; Day 1
  Percent Increase in 50% MWT (g) (as compared to Day 15 of study): 0.0%
[2]; [5]
  Pain threshold of plantar pain, 50% MWT: 15.00 ± 0.00 g
[2]; Day 15
  Percent Increase in 50% MWT (g) (as compared to Day 15 of study): 0.7%
[2]; Day 15 (before administration of treatment)
  Pain threshold of plantar pain, 50% MWT: 3.23 ± 0.64 g
[2]; Day 16
  Pain threshold of plantar pain, 50% MWT: 5.27 ± 2.72 g
  Percent Increase in 50% MWT (g) (as compared to Day 15 of study): 52.9%
[2]; Day 23
  Pain threshold of plantar pain, 50% MWT: 7.11 ± 2.45 g
  Percent Increase in 50% MWT (g) (as compared to Day 15 of study): 90.3%
[2]; Day 29
  Pain threshold of plantar pain, 50% MWT: 8.47 ± 4.92 g
[2]; Day 30
  Percent Increase in 50% MWT (g) (as compared to Day 15 of study): 108.2%
[2]; Day 37
  Pain threshold of plantar pain, 50% MWT: 9.84 ± 4.65 g
  Percent Increase in 50% MWT (g) (as compared to Day 15 of study): 70.9%
[2]; [6]
  Pain threshold of plantar pain over time compared with osteoarthritis model (vehicle-treated) group: significant increase
[2]; duloxetine dosage group, Days 23, 30 and 37 of the study, p<0.05
  Pain threshold of plantar pain at each time point: significantly increased
[3]; Day 1 of study (before treatment)
  Weight: 223.8 ± 7.8 g
[3]; Day 8 of study (model establishment, before treatment)
  Weight: 280.1 ± 11.2 g
[3]; Day 15 of study (treatment start)
  Weight: 317.8 ± 20.4 g
[3]; Day 22 of study
  Weight: 353.9 ± 23.0 g
[3]; Day 29 of study
  Weight: 389.9 ± 26.2 g
[3]; Day 36 of study
  Weight: 423.0 ± 30.0 g
[4]; [5]
  Weight bearing difference of hind legs: 2.96 ± 1.88 g
[4]; Day 15 (treatment start)
  Weight bearing difference of hind legs: 104.28 ± 11.40 g
[4]; Day 16
  Weight bearing difference of hind legs: 95.60 ± 2.27 g
[4]; Day 23
  Weight bearing difference of hind legs: 80.91 ± 1.98 g
[4]; Day 30
  Weight bearing difference of hind legs: 56.80 ± 4.06 g
[4]; Day 37
  Weight bearing difference of hind legs: 51.12 ± 4.81 g
[4]; [6]
  Decrease in hind limb weight bearing difference over time compared with osteoarthritis model (vehicle-treated) group: significant
[4]; duloxetine test group, Days 16, 23, 30 and 37, p<0.01
  Hind limb weight bearing difference at each time point: significant decrease
